The source of these data is patent publication US20240228535A1 (priority 2022, published 2024).

Each structure is given as a SMILES string.

The assay addresses SARS2 coronavirus 3CL protease (Severe acute respiratory syndrome coronavirus 2, UniProt P0DTD1). The assay can be described thus: biochemical. To be noted: 5 nM enzyme, 30 min pre-incubation with compound, 15 μM peptide substrate, 4 h at room temperature; read-out: FRET Potency (nM); IC50 values in the SARS2 3CLPro FRET assay.
As to `CNC(=O)C(=O)[C@H](C[C@@H]1CCNC1=O)NC(=O)c1cc(Cl)ccc1NC(=O)OC1CC1` [Example 11, cyclopropyl (4-chloro-2-(((S)-4-(methylamino)-3,4-dioxo-1-((S)-2-oxopyrrolidin-3-yl)butan-2-yl)carbamoyl)phenyl)carbamate], the IC50 worked out at 4.8 nM. In the case of `CC(C(=O)Nc1ccc(Cl)cc1C(=O)N[C@@H](C[C@@H]1C[C@@H](C)NC1=O)C(=O)C(=O)NC1CC1)c1cscn1` (stereo partly drawn) [Example 89, 5-chloro-N-[(1S)-3-(cyclopropylamino)-1-[[(3S,5R)-5-methyl-2-oxo-pyrrolidin-3-yl]methyl]-2,3-dioxo-propyl]-2-(2-thiazol-4-ylpropanoylamino)benzamide], the IC50 was 10.1 nM. The value for `CNC(=O)C(=O)[C@H](C[C@@H]1C[C@@H](C)NC1=O)NC(=O)c1cc(Cl)c(F)cc1NC(=O)C1(CC(F)(F)F)CC1` [Example 214, 5-chloro-4-fluoro-N-[(1S)-3-(methylamino)-1-[[(3S,5R)-5-methyl-2-oxo-pyrrolidin-3-yl]methyl]-2,3-dioxo-propyl]-2-[[1-(2,2,2-trifluoroethyl)cyclopropane-carbonyl]amino]benzamide] was 6.8 nM; that for `C[C@@H]1C[C@@H](C[C@H](NC(=O)c2cc(Cl)ccc2NC(=O)C2CCOCC2)C(=O)C(=O)NC2CC2)C(=O)N1` [Example 192, N-[4-chloro-2-[[(1S)-3-(cyclopropylamino)-1-[[(3S,5R)-5-methyl-2-oxo-pyrrolidin-3-yl]methyl]-2,3-dioxo-propyl]carbamoyl]phenyl]tetra-hydropyran-4-carboxamide] was 10.3 nM; that for `CNC(=O)C(=O)[C@H](C[C@@H]1C[C@@H](C)NC1=O)NC(=O)c1cc(Cl)c(Cl)cc1NC(=O)OC1CC1` [Example 170, cyclopropyl N-[4,5-dichloro-2-[[(1S)-3-(methylamino)-1-[[(3S,5R)-5-methyl-2-oxo-pyrrolidin-3-yl]methyl]-2,3-dioxo-propyl]carbamoyl]phenyl] carbamate] was 10.5 nM. For `C[C@@H]1C[C@@H](C[C@H](NC(=O)c2cc(F)ccc2NC(=O)c2ccnc(C(F)(F)F)c2)C(=O)C(=O)NC2CC2)C(=O)N1` [Example 77, N-[2-[[(1S)-3-(cyclopropylamino)-1-[[(3S,5R)-5-methyl-2-oxo-pyrrolidin-3-yl]methyl]-2,3-dioxo-propyl]carbamoyl]-4-fluoro-phenyl]-2-(trifluoromethyl)pyridine-4-carboxamide], the IC50 stood at 5.3 nM.

For the molecule `CNC(=O)C(=O)[C@H](C[C@@H]1C[C@@H](C)NC1=O)NC(=O)c1cc(Cl)ccc1NC(=O)OCC(F)(F)F` [Example 181, 2,2,2-trifluoroethyl N-[4-chloro-2-[[(1S)-3-(methylamino)-1-[[(3S,5R)-5-methyl-2-oxo-pyrrolidin-3-yl]methyl]-2,3-dioxo-propyl]carbamoyl]phenyl] carbamate], the IC50 was found to be 7.2 nM. To `COC(=O)Nc1ccc(Cl)cc1C(=O)N[C@@H](C[C@@H]1CCNC1=O)C(=O)C(=O)NC1CC1` [Example 123] belongs 7.3 nM; to `CNC(=O)C(=O)[C@H](C[C@@H]1C[C@@H](C)NC1=O)NC(=O)c1cc(Cl)ccc1NC(=O)C(C)c1ccnc(C(F)(F)F)c1` (stereo partly drawn) [Example 227, 5-chloro-N-[(1S)-3-(methylamino)-1-[[(3S,5R)-5-methyl-2-oxo-pyrrolidin-3-yl]methyl]-2,3-dioxo-propyl]-2-[2-[2-(trifluoromethyl)-4-pyridyl]propanoylamino] benzamide], 7.4 nM; to `CNC(=O)C(=O)[C@H](C[C@@H]1C[C@@H](C)NC1=O)NC(=O)c1cc(Cl)ccc1NC(=O)C1(CC(F)(F)F)CC1` [Example 202, 5-chloro-N-[(1S)-3-(methylamino)-1-[[(3S,5R)-5-methyl-2-oxo-pyrrolidin-3-yl]methyl]-2,3-dioxo-propyl]-2-[[1-(2,2,2-trifluoroethyl)cyclopropane-carbonyl]amino]benzamide], 11.9 nM. Regarding `O=C(NC1CC1)C(=O)[C@H](C[C@@H]1CCNC1=O)NC(=O)c1cc(Cl)ccc1NC(=O)c1ccnc(C(F)(F)F)c1` [Example 75, N-[4-chloro-2-[[(1S)-3-(cyclopropylamino)-2,3-dioxo-1-[[(3S)-2-oxopyrrolidin-3-yl]methyl]propyl]carbamoyl]phenyl]-2-(trifluoromethyl)pyridine-4-carboxamide], the IC50 is 6 nM. As to `C[C@@H]1C[C@@H](C[C@H](NC(=O)c2cc(Cl)ccc2NC(=O)C2(CC(F)(F)F)CC2)C(=O)C(=O)NC2CC2)C(=O)N1` [Example 62], the IC50 was found to be 7.6 nM. As to `CNC(=O)C(=O)[C@H](C[C@@H]1C[C@@H](C)NC1=O)NC(=O)c1cc(Cl)ccc1NC(=O)[C@@H]1CN(C)C(=O)O1` [Example 182, (5S)-N-[4-chloro-2-[[(1S)-3-(methylamino)-1-[[(3S,5R)-5-methyl-2-oxo-pyrrolidin-3-yl]methyl]-2,3-dioxo-propyl]carbamoyl]phenyl]-3-methyl-2-oxo-oxazolidine-5-carboxamide], the IC50 is 6.7 nM. `CO[C@H](C)C(=O)Nc1ccc(Cl)cc1C(=O)N[C@@H](C[C@@H]1C[C@@H](C)NC1=O)C(=O)C(=O)NC1CC1` [Example 164, 5-chloro-N-[(1S)-3-(cyclopropylamino)-1-[[(3S,5R)-5-methyl-2-oxo-pyrrolidin-3-yl]methyl]-2,3-dioxo-propyl]-2-[[(2R)-2-methoxypropanoyl]amino] benzamide]: the IC50 came out at 4.8 nM. To `C[C@@H]1C[C@@H](C[C@H](NC(=O)c2cc(Cl)ccc2NC(=O)CCC(F)(F)F)C(=O)C(=O)NCc2nc[nH]n2)C(=O)N1` [Example 116, 5-chloro-N-[(1S)-1-[[(3S,5R)-5-methyl-2-oxo-pyrrolidin-3-yl]methyl]-2,3-dioxo-3-(1H-1,2,4-triazol-3-ylmethylamino)propyl]-2-(4,4,4-trifluorobutanoylamino) benzamide] belongs 20.9 nM; to `CNC(=O)C(=O)[C@H](C[C@@H]1C[C@@H](C)NC1=O)NC(=O)c1cc(Cl)ccc1NC(=O)OC` [Example 9, methyl (4-chloro-2-(((S)-1-((3S,5R)-5-methyl-2-oxopyrrolidin-3-yl)-4-(methylamino)-3,4-dioxobutan-2-yl)carbamoyl)phenyl)carbamate], 7.3 nM.

Regarding `C[C@@H]1C[C@@H](C[C@H](NC(=O)c2c(NC(=O)c3ccnc(C(F)(F)F)c3)cc(F)c(F)c2F)C(=O)C(=O)NC2CC2)C(=O)N1` [Example 233, N-[2-[[(1S)-3-(cyclopropylamino)-1-[[(3S,5R)-5-methyl-2-oxo-pyrrolidin-3-yl]methyl]-2,3-dioxo-propyl]carbamoyl]-3,4,5-trifluoro-phenyl]-2-(trifluoromethyl)pyridine-4-carboxamide], the IC50 turned out to be 44 nM. Turning to `C[C@@H]1C[C@@H](C[C@H](NC(=O)c2cc(Cl)ccc2NC(=O)C2(C(F)(F)F)CCC2)C(=O)C(=O)NC2CC2)C(=O)N1` [Example 35, 5-chloro-N-[(1S)-3-(cyclopropylamino)-1-[[(3S,5R)-5-methyl-2-oxo-pyrrolidin-3-yl]methyl]-2,3-dioxo-propyl]-2-[[1-(trifluoromethyl)cyclobutanecarbonyl]amino]benzamide], the IC50 was determined as 11.1 nM. To `C[C@@H]1C[C@@H](C[C@H](NC(=O)c2cc(C(F)(F)F)ccc2NC(=O)c2cccc(C(F)(F)F)c2)C(=O)C(=O)NC2CC2)C(=O)N1` [Example 64, N-[(1S)-3-(cyclopropylamino)-1-[[(3S,5R)-5-methyl-2-oxo-pyrrolidin-3-yl]methyl]-2,3-dioxo-propyl]-5-(trifluoromethyl)-2-[[3-(trifluoromethyl)benzoyl]amino]benzamide] belongs 7.3 nM. `C[C@@H]1C[C@@H](C[C@H](NC(=O)c2cc(Cl)ccc2NC(=O)c2cnc(C(F)(F)F)cn2)C(=O)C(=O)NC2CC2)C(=O)N1` [Example 226, N-[4-chloro-2-[[(1S)-3-(cyclopropylamino)-1-[[(3S,5R)-5-methyl-2-oxo-pyrrolidin-3-yl]methyl]-2,3-dioxo-propyl]carbamoyl]phenyl]-5-(trifluoromethyl)pyrazine-2-carboxamide]: the IC50 is 19.1 nM. To `C[C@@H]1C[C@@H](C[C@H](NC(=O)c2cc(Cl)ccc2NC(=O)[C@@H]2CNC(=O)O2)C(=O)C(=O)NC2CC2)C(=O)N1` [Example 193, (5S)-N-[4-chloro-2-[[(1S)-3-(cyclopropylamino)-1-[[(3S,5R)-5-methyl-2-oxo-pyrrolidin-3-yl]methyl]-2,3-dioxo-propyl]carbamoyl]phenyl]-2-oxo-oxazolidine-5-carboxamide] belongs 5.2 nM; to `C[C@@H]1C[C@@H](C[C@H](NC(=O)c2cc(Cl)cnc2NC(=O)C23CC(C(F)(F)F)(C2)C3)C(=O)C(=O)NC2CC2)C(=O)N1` [Example 5, 5-chloro-N—((S)-4-(cyclopropylamino)-1-((3S,5R)-5-methyl-2-oxopyrrolidin-3-yl)-3,4-dioxobutan-2-yl)-2-(3-(trifluoromethyl)bicyclo[1.1.1]pentane-1-carboxamido)nicotinamide], 8.7 nM. Consider `CNC(=O)C(=O)[C@H](C[C@@H]1C[C@@H](C)NC1=O)NC(=O)c1cc(Cl)cnc1NC(=O)OC1CC1` [Example 140, cyclopropyl N-[5-chloro-3-[[(1S)-3-(methylamino)-1-[[(3S,5R)-5-methyl-2-oxo-pyrrolidin-3-yl]methyl]-2,3-dioxo-propyl]carbamoyl]-2-pyridyl]carbamate], for which the IC50 came to 9.2 nM.

Take `CC(C(=O)Nc1ccc(Cl)cc1C(=O)N[C@@H](C[C@@H]1C[C@@H](C)NC1=O)C(=O)C(=O)NC1CC1)c1cscn1` (stereo partly drawn) [Example 93, 5-chloro-N-[(1S)-3-(cyclopropylamino)-1-[[(3S,5R)-5-methyl-2-oxo-pyrrolidin-3-yl]methyl]-2,3-dioxo-propyl]-2-(2-thiazol-4-ylpropanoylamino)benzamide]: the IC50 came to 12.6 nM. For the molecule `C[C@@H]1C[C@@H](C[C@H](NC(=O)c2cc(Cl)ccc2NC(=O)CCC(F)(F)F)C(=O)C(=O)NCc2ccncc2)C(=O)N1` [Example 114, 5-chloro-N-[(1S)-1-[[(3S,5R)-5-methyl-2-oxo-pyrrolidin-3-yl]methyl]-2,3-dioxo-3-(4-pyridylmethylamino)propyl]-2-(4,4,4-trifluorobutanoylamino) benzamide], the IC50 is 18.9 nM.
